According to patent US10368545B2, “Substituted 2-thioimidazolylcarboxamides as pesticides” (BAYER CROPSCIENCE AKTIENGESELLSCHAFT, priority 2015, dated 2019):
Several values for one entry are separate records, joined by “and”; a condition that tells them apart may be missing. Equal entries are not always repeated.

Columns and labels:
[1] = system: green peach aphid (Myzus persicae); assay: Myzus persicae spray test (Chinese cabbage leaf discs); type: in vivo; details: after 5 or 6 days, Chinese cabbage leaf discs
Summary of the method: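 Leaf discs bearing all aphid stages are sprayed with compound dissolved in acetone/DMF and diluted with water containing 1000 ppm emulsifier. Efficacy in % is scored after 5 or 6 days: 100% means all aphids killed, 0% none killed.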

[2] = system: green peach aphid (Myzus persicae); assay: Contrasting example: Myzus persicae spray test (MYZUPE); type: in vivo; details: MYZUPE, 100 g ai/ha; for pest or weed control at 100 g/ha: Myzus persicae, 144 h, read-out: % efficacy
Method: Myzus persicae—Spray Test (MYZUPE)
(§1) Solvents: 78.0 parts by weight of acetone • • 1.5 parts by weight of dimethylformamide
(§2) Emulsifier: alkylaryl polyglycol ether
(§3) To produce a suitable active compound preparation, 1 part by weight of active compound is dissolved using the stated parts by weight of solvent and made up with water containing an emulsifier concentration of 1000 ppm until the desired concentration is attained. To produce further test concentrations, the preparation is diluted with emulsifier-containing water.
Discs of Chinese cabbage leaves (Brassica pekinensis), infested by all stages of the green peach aphid (Myzus persicae) are sprayed with an active compound preparation of the desired concentration.
After the desired period of time, the efficacy in % is determined. 100% means that all aphids were killed; 0% means that no aphids were killed.

[3] = log P by HPLC on reversed-phase C18 columns (OECD Guideline 117); type: physicochemical; details: for logP[a]: method [a]; for logP[b]: method [b]
Summary of the method: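 Reversed-phase C18 HPLC per OECD 117, LC-MS with a linear 10% to 95% acetonitrile gradient. Acidic method at pH 2.7 with 0.1% formic acid; neutral method at pH 7.8 with 0.001 M ammonium hydrogencarbonate.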

[4] = system: greenhouse red spider mite (Tetranychus urticae); assay: Contrasting example: Tetranychus urticae spray test, OP resistant (TETRUR); type: in vivo; details: 500 g ai/ha, 6 dat
Method: Tetranychus urticae—Spray Test; OP Resistant (TETRUR)
as §1, §2, §3
Discs of bean leaves (Phaseolus vulgaris), infested by all stages of the greenhouse red spider mite (Tetranychus urticae) are sprayed with an active compound preparation of the desired concentration.
After the desired period of time, the efficacy in % is determined. 100% means that all spider mites were killed; 0% means that no spider mites were killed.

[5] = system: greenhouse red spider mite (Tetranychus urticae); assay: Tetranychus urticae spray test, OP-resistant (bean leaf discs); type: in vivo; details: application rate 500 g/ha, after 6 days
Method: Tetranychus urticae—Spray Test, OP-Resistant
Solvent: 78.0 parts by weight of acetone • • 1.5 parts by weight of dimethylformamide
as §2, §3
Discs of bean leaves (Phaseolus vulgaris) infested with all stages of the greenhouse red spider mite (Tetranychus urticae) are sprayed with an active compound preparation of the desired concentration.
After 6 days, the efficacy in % is determined. 100% means that all the spider mites had been killed; 0% means that no spider mites had been killed.

[6] = system: larvae of the mustard beetle (Phaedon cochleariae); assay: Contrasting example: Phaedon cochleariae spray test (PHAECO); type: in vivo; details: 500 g ai/ha, 7 dat
Method: Phaedon cochleariae—Spray Test (PHAECO)
as §1, §2, §3
After the desired period of time, the efficacy in % is determined. 100% means that all beetle larvae were killed; 0% means that no beetle larvae were killed.

[7] = system: green peach aphid (Myzus persicae); assay: Myzus persicae spray test (bell pepper plants); type: in vivo; details: after 6 days
Method: Myzus persicae—Spray Test
Solvent: 14 parts by weight of dimethylformamide
as §2
as §3, with “water. If the addition of ammonium salts and/or penetrants is required, these are each added in a concentration of 1000 ppm to the formulation solution.” for “water.”
Bell pepper plants (Capsicum annuum) severely infested with the green peach aphid (Myzus persicae) are treated by spraying with the active compound preparation in the desired concentration.
After 6 days, the kill in % is determined. 100% means that all of the aphids have been killed; 0% means that none of the aphids have been killed.

logP[a] [3]	logP[b] [3]	SMILES	efficacy (aphids killed) ([1]; application rate 500 g/ha)	% efficacy ([2]; 6 dat)	further results
		Cc1nc(C(=O)Nc2cccnc2)c[nH]1 [Example 14]			% efficacy [6]: 0%; pest or weed control at 100 g/ha ([2]; 6 dat): 0%; % efficacy [4]: 0%
0.80	1.30	CCN(C(=O)c1cnc(SC)n1C)c1cccnc1 [I-A-44]			efficacy (kill of aphids) ([7]; application rate 20 ppm): 100%
1.04	1.35	COCCCSc1ncc(C(=O)N(C)c2cccnc2)n1C [I-A-20]			efficacy (kill of aphids) ([7]; application rate 20 ppm): 99%
1.55	1.97	Cc1cc(C)nc(Sc2ncc(C(=O)Nc3cccnc3)n2C)n1 [I-A-4]		70%	efficacy (kill of aphids) ([7]; application rate 20 ppm): 99%
2.02	2.14	CN(C(=O)c1cnc(Sc2ccc(Cl)cc2)n1C)c1cccnc1 [I-A-57]			efficacy (kill of aphids) ([7]; application rate 20 ppm): 99%
1.12	1.28	COc1ccc([S+]([O-])c2ncc(C(=O)N(C)c3cccnc3)n2C)cc1 (stereo not shown) [I-A-93]		70%	efficacy (kill of aphids) ([7]; application rate 20 ppm): 95%
0.66	0.87	CN(C(=O)c1cnc(S(=O)(=O)c2ncccn2)n1C)c1cccnc1 [I-A-99]		70%	efficacy (kill of aphids) ([7]; application rate 20 ppm): 100%
1.20	1.38	CN(C(=O)c1cnc([S+]([O-])c2ccc([N+](=O)[O-])cc2)n1C)c1cccnc1 (stereo not shown) [I-A-89]		70%	efficacy (kill of aphids) ([7]; application rate 20 ppm): 99%
1.31	1.60	CCCSc1ncc(C(=O)N(C)c2cccnc2)n1C [I-A-21]	100%	100%	
		O=C(Nc1cccnc1)c1c[nH]cn1 [Example 13]			% efficacy [6]: 0%; pest or weed control at 100 g/ha ([2]; 6 dat): 0%; % efficacy [4]: 0%
0.45	0.48	CN(C(=O)c1cnc([S+]([O-])c2ncccn2)n1C)c1cccnc1 (stereo not shown) [I-A-97]	90%	70%	
1.62	1.79	COc1ccc(Sc2ncc(C(=O)N(C)c3cccnc3)n2C)cc1 [I-A-58]	90%	70%	
1.92	1.96	CN(C(=O)c1cnc(Sc2nnc(-c3ccccc3)s2)n1C)c1cccnc1 [I-A-140]	100%		% efficacy ([2]; 5 dat): 70%
	0.86	CN(C(=O)c1cnc(Sc2nccn2C)n1C)c1cccnc1 [I-A-144]	100%		% efficacy ([2]; 5 dat): 90%
1.68	1.78	CN(C(=O)c1cnc(Sc2ccccc2F)n1C)c1cccnc1 [I-A-71]	100%	70%	
1.11	1.27	CCn1c(C(=O)N(C)c2cccnc2)cnc1Sc1ncccn1 [I-A-146]			efficacy (aphids killed) ([1]; application rate 100 g/ha): 90%; % efficacy ([2]; 5 dat): 90%
1.41	1.46	CCn1c(Sc2ncc(C(=O)N(C)c3cccnc3)n2C)nnc1C(F)(F)F [I-A-137]	90%		% efficacy ([2]; 5 dat): 90%
1.97	2.11	CN(C(=O)c1cnc(Sc2cccc(Cl)c2)n1C)c1cccnc1 [I-A-66]			efficacy (kill of aphids) ([7]; application rate 100 ppm): 99%
1.41	1.39	CN(C(=O)c1cnc([S+]([O-])c2cccc(C(F)(F)F)c2)n1C)c1ccc[n+]([O-])c1 (stereo not shown) [I-A-95]	100%		% efficacy ([2]; 5 dat): 90%
1.56	1.63	CN(C(=O)c1cnc(Sc2ccccc2S(=O)(=O)N(C)C)n1C)c1cccnc1 [I-A-69]	100%	70%	
2.47	2.54	CN(C(=O)c1cnc(SCc2c(Cl)cccc2C(F)(F)F)n1C)c1cccnc1 [I-A-126]	100%	70%	
0.90	1.25	CN(C(=O)c1cnc(SC2CCOCC2)n1C)c1cccnc1 [I-A-52]	100%		% efficacy ([2]; 5 dat): 100%
0.97		Cc1cnc(Sc2ncc(C(=O)N(C)c3cccnc3)n2C)nc1 [I-A-104]	100%	90%	
1.28	1.43	Cc1cccc(Sc2ncc(C(=O)N(C)c3cccnc3)n2C)n1 [I-A-108]	100%	70%	
0.87	1.22	C#CCSc1ncc(C(=O)N(C)c2cccnc2)n1C [I-A-30]	90%	90%	
0.66	0.93	CN(C(=O)c1cnc(SCc2cnccn2)n1C)c1cccnc1 [I-A-113]	90%	90%	
0.63	0.98	CN(C(=O)c1cnc(SC2COC2)n1C)c1cccnc1 [I-A-54]	100%		% efficacy ([2]; 5 dat): 90%
0.95	1.31	CCSc1ncc(C(=O)N(C)c2cccnc2)n1C [I-A-36]	90%	90%	
0.68	0.88	CCS(=O)(=O)c1ncc(C(=O)N(C)c2cccnc2)n1C [I-A-40]	100%	90%	

SMILES	logP[a] [3]	logP[b] [3]	efficacy (aphids killed) ([1]; application rate 500 g/ha)	% efficacy ([2]; 6 dat)	further results
CN(C(=O)c1cnc(SCc2c(Cl)cccc2Cl)n1C)c1cccnc1 [I-A-125]	2.09	2.28	90%	70%	% efficacy [4]: 70%
CN(C(=O)c1cnc(Sc2ncc(C(F)(F)F)cn2)n1C)c1cccnc1 [I-A-105]	1.64	1.73	100%	100%	efficacy (spider mites killed) [5]: 90%; % efficacy [4]: 90%
CN(C(=O)c1cnc(S(=O)(=O)c2cc(Cl)cc(Cl)c2)n1C)c1cccnc1 [I-A-78]	2.37	2.53		90%	efficacy (spider mites killed) [5]: 90%; efficacy (aphids killed) ([1]; application rate 100 g/ha): 90%; % efficacy [4]: 90%
CN(C(=O)c1cnc(Sc2ncccc2C(F)(F)F)n1C)c1cccnc1 [I-A-110]	1.77	1.93	100%	100%	% efficacy [4]: 70%
CON=C(C)CSc1ncc(C(=O)N(C)c2cccnc2)n1C [I-A-39]	1.13	1.37 and 1.45	90%		% efficacy [4]: 70%
CCCCCSc1ncc(C(=O)N(C)c2cccnc2)n1C [I-A-6]	2.03	2.33	90%	90%	efficacy (spider mites killed) [5]: 90%; % efficacy [4]: 90%
CN(C(=O)c1cnc(Sc2ncc(F)cn2)n1C)c1cccnc1 [I-A-107]	1.04	1.20	90%	90%	% efficacy [4]: 70%
